Test results published in PMC7933325, “Neolignans and Norlignans from Insect Medicine Polyphaga plancyi and Their Biological Activities” (Natural Products and Bioprospecting, 2020).

Assays:
Assay in all cases: kinase inhibition assay (method cited to earlier paper)
Assay type in all cases: biochemical
JAK3 = target: T1, JAK3 (Homo sapiens, UniProt P52333)
T1 sequence (P52333 1-1124): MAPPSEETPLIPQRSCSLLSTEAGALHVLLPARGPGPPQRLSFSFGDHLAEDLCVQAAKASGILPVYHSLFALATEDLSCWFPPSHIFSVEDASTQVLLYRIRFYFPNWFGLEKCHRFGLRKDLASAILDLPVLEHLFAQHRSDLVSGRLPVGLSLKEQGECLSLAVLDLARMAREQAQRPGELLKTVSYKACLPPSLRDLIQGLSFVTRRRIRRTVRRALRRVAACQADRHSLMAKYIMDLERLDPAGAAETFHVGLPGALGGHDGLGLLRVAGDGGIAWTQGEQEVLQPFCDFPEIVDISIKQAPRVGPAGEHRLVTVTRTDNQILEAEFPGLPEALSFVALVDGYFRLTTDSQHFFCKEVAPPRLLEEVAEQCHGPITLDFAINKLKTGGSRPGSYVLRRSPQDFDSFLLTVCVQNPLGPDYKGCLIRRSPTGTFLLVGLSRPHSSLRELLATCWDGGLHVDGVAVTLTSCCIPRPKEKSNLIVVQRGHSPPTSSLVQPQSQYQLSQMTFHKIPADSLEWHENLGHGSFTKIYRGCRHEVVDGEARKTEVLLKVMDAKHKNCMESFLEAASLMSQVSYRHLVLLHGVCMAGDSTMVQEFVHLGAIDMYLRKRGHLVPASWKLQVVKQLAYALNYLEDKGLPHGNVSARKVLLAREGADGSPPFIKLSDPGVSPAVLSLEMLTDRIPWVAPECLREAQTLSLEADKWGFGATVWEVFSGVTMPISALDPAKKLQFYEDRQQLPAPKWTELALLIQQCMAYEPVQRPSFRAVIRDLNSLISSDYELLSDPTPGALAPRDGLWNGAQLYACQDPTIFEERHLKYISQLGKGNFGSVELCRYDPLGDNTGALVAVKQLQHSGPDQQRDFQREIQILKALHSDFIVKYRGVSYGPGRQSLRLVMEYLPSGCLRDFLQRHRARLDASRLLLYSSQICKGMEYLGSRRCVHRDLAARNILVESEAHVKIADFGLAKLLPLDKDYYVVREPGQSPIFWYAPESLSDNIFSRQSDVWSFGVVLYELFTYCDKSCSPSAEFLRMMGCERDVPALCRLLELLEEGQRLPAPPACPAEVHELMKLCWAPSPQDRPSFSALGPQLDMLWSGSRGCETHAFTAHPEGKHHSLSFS

ROCK2 = ROCK2 (Homo sapiens, UniProt O75116)
DDR1 = DDR1 (Homo sapiens, UniProt Q08345)
DDR1, sequence (Q08345 19-913): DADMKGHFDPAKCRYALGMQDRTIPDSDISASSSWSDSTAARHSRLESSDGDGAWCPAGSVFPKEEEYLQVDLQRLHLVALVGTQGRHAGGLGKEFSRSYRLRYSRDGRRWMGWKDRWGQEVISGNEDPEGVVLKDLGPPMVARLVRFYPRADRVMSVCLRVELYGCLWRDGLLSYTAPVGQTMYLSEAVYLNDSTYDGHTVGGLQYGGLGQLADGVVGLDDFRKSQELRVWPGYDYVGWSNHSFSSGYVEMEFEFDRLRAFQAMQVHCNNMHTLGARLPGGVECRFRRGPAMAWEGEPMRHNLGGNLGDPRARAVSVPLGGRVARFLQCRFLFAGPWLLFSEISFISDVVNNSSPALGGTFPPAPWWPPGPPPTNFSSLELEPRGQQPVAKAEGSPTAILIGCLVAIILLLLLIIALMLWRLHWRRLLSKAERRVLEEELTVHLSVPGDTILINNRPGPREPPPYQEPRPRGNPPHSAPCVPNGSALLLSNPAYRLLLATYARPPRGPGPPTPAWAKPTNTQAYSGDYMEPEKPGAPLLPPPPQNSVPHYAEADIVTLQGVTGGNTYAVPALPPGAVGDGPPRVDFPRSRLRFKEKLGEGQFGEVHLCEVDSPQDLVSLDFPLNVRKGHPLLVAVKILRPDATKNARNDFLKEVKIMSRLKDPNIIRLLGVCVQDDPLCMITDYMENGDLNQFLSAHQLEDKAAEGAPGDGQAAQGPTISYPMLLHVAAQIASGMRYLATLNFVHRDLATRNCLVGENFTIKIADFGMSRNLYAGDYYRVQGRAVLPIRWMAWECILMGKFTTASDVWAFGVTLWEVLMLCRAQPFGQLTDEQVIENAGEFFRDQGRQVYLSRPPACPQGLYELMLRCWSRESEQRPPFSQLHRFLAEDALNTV

ROCK2, sequence (O75116 whole entry): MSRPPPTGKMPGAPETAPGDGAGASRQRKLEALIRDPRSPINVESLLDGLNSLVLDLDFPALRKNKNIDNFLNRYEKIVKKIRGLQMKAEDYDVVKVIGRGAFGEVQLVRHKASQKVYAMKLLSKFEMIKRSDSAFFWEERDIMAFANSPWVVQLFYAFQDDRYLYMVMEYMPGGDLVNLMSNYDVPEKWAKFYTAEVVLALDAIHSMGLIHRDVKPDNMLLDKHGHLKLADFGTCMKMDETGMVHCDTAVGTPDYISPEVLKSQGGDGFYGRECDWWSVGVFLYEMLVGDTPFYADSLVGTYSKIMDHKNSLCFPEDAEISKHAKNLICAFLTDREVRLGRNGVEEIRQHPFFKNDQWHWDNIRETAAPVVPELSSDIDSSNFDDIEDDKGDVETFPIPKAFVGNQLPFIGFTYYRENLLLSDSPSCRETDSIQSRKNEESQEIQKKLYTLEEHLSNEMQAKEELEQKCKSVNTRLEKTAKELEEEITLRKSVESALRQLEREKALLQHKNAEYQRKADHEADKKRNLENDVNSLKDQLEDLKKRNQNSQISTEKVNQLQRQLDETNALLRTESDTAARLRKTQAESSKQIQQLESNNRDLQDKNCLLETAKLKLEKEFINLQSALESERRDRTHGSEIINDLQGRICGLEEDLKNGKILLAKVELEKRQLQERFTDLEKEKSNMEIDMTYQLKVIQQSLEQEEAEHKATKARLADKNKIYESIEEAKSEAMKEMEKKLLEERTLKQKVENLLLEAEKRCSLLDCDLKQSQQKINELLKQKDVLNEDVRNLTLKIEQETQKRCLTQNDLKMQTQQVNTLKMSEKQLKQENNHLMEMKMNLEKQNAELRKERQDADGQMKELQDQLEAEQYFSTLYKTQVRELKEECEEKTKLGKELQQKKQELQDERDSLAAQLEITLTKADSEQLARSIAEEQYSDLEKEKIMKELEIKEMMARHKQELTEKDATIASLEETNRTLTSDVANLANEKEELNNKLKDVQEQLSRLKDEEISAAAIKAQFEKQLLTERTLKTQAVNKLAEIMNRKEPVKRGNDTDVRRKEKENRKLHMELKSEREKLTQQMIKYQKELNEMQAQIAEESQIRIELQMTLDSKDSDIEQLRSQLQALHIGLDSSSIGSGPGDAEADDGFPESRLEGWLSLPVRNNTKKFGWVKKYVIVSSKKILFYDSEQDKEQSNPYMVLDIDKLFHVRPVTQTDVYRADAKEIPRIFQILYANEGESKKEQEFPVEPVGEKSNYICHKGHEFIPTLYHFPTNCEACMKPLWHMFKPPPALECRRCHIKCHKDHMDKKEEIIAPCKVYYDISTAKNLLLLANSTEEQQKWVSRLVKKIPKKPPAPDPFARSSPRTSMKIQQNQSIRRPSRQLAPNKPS

| Compound | IC50 (JAK3) [µM] | IC50 (ROCK2) [µM] | IC50 (DDR1) [µM] |
| --- | --- | --- | --- |
| Cc1ccc(O)c(-c2cc(CC(=O)O)ccc2O)c1 [compound 6, Plancyin F] | 9.17 | 27.1 | – |
| OC[C@H]1OC[C@H](c2ccc(O)c(O)c2)c2cc(O)c(O)cc21 (stereo in doubt) [(+)-9, (+)-Periplanol A] | 9.35 | – | 23.9 |
| OC[C@@H]1OC[C@@H](c2ccc(O)c(O)c2)c2cc(O)c(O)cc21 (stereo in doubt) [(−)-9, (−)-Periplanol A] | 4.59 | – | 22.9 |
